Earlier results on 1 compound are cited in US12239727B2, “Compositions for use in the treatment of photosensitivity” (RepoCeuticals A/S, priority 2018, dated 2025).

For this series the following is noted: room temperature, solvent DMSO.

Some results are limits rather than exact numbers.

In the case of `COc1ccc2[nH]cc(CCNC(C)=O)c2c1` [melatonin, N-acetyl-5-methoxytryptamine], the “solubility in DMSO” value was at least 232 g/L.
